In ChEMBL document CHEMBL1142638, “Thalicosides A1-A3, minor cycloartane bisdesmosides from Thalictrum minus” (2000) one finds Activity data, which are given here for one molecule.

The test system of one assay is Candida albicans. Put plainly: Antifungal activity against Candida albicans ATCC 90028 at 1 mg/mL after 24 hrs by spectrophotometry. The class given is functional.
The next assay relates to Staphylococcus aureus. Put plainly: Antibacterial activity against Staphylococcus aureus ATCC 6538P at 1 mg/mL after 24 hrs by spectrophotometry. It is filed as functional.

In the case of `CC(C)=CC[C@H](O)[C@@H](C)[C@H]1[C@@H](O)C[C@@]2(C)[C@@H]3CC[C@H]4[C@](C)(CO[C@@H]5O[C@H](CO)[C@@H](O)[C@H](O)[C@H]5O)[C@@H](O[C@@H]5OC[C@H](O)[C@H](O)[C@H]5O)CC[C@@]45C[C@@]35CC[C@]12C` [THALICOSIDE A2], the Activity in the assay on Candida albicans is listed as 78.7%; in the assay on Staphylococcus aureus it was 45.7%.
